These results are taken from patent EP4722209A1 (Beijing Shenogen Pharma Group, priority 2023, dated 2024).

A word on the DC50: it is the concentration at which degradation of the target reaches its halfway point. Low values mean a more potent degrader, high ones a less potent degrader.

The target in this assay is T1, ERα (Homo sapiens, UniProt P03372).
T1 construct: host or cells: MCF-7
T1 sequence (P03372 1-595): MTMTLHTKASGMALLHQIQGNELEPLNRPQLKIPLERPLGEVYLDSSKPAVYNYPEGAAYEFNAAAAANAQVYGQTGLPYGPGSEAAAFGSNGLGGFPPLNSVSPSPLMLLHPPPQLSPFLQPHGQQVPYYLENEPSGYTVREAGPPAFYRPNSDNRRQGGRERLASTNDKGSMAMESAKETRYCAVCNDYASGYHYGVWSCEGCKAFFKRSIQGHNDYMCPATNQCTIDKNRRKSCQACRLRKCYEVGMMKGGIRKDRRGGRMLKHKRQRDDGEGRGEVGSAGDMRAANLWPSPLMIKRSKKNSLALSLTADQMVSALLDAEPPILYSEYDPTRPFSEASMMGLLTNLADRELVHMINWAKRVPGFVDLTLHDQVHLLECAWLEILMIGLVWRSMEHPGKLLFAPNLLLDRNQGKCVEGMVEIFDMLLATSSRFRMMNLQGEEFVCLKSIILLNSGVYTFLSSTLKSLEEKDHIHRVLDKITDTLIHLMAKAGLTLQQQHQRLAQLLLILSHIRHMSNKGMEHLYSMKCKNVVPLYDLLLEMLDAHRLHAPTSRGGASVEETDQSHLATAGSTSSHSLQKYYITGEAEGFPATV
Description: ER degradation activity in MCF-7 cells (Western blot, grayscale intensity). The following applies: 6 hours treatment, 1 nM to 100 nM, concentration required to degrade 50% of the target protein. The assay is classed as cell-based. On the procedure: ERα-positive human breast cancer cells MCF-7 (ATCC, HTB-22) were cultured with EMEM medium (ATCC, catalog number 30-2003) containing 10% fetal bovine serum (Thermo Fisher, catalog number 10099141) and 10 µg/mL bovine insulin in 25 cm^2 or 75 cm^2 plastic tissue culture flasks in a 37 °C incubator with 5% CO2. The cells were passaged 2 to 3 times per week. MCF-7 cells were seeded in 6-well plate at 1×10^6 cells/well with 1.8 mL culture medium per well, and cultured in a 37 °C incubator with 95% air and 5% CO2. After 24 hours, the test compounds were added: the compounds were serially diluted 10-fold in DMSO starting from 10 mM (dissolved in DMSO) to prepare gradient stock solutions. A complete culture medium containing 1% DMSO was prepared for further dilution, temporarily named as the "dilution buffer." Working solutions were prepared by diluting each stock solution with 99 times the volume of dilution buffer, that is, by adding 1 µL of the 10 mM stock solution to 99 µL of the dilution buffer and mixing thoroughly.
Finally, […] of the working solution was added to the cell-seeded culture plate. The final concentration of DMSO in the cell culture medium was 0.2%, and the final concentration of the test compounds ranged from 1 nM to 100 nM. The cells were then incubated at 37 °C for 6 hours.
The culture medium was removed, and the cells were washed twice with ice cold PBS. 1 mL of PBS was added to each well, and the cells were collected into EP tubes using a cell scraper, and centrifuged at 4 °C, 4000 rpm for 5 minutes. PBS was aspirated. Total protein was extracted using the Minute™ Mammalian Tissue/Cell Total Protein Extraction Reagent. The protein concentration was measured using the BCA protein assay kit. 30 µg of protein was taken and mixed with 5× SDS-PAGE loading buffer, boiled for 10 minutes, and cooled. The samples were loaded into wells of a precast gel, with constant voltage at 80 V for 30 minutes, and then the voltage was changed to 120 V after the samples entered the resolving gel. The "sandwich" (sponge - filter paper - gel - membrane - filter paper - sponge) was assembled for Bio-Rad's Transblot. Transfer was performed for 1 hour at 0.3 amp at 4 °C. The sample was blocked with 5% fat-free milk for 1 hour, and incubated with Estrogen Receptor alpha Antibody (Thermo Fisher, catalog number MA5-14104) overnight at 4 °C. The membrane was washed with TBST to remove non-specifically bound antibodies, and then incubated with goat anti-mouse IgG-HRP secondary antibody for 1 hour at room temperature, and was visualized using ECL. The protein degradation level was calculated by measuring the grayscale intensity.
The DC50 values (i.e., the concentration of the test compounds required to degrade 50% of the target protein) were calculated and shown in Table 1. A corresponds to a DC50 value below 10 nM, B corresponds to a DC50 value greater than 10 nM and less than 100 nM, and C corresponds to DC50 values greater than 100 nM. Table 1. The DC50 values of exemplary compounds in MCF-7 cells

Compound `CC1(C)CC(=C(c2ccc(N3CCN(CC4CN(c5ccc6c(c5)C(=O)N(C5CCC(=O)NC5=O)C6=O)C4)CC3)cc2)c2ccc3[nH]nc(F)c3c2)CC(C)(C)O1` (centres unmarked) [Compound 1] registered a DC50 of more than 100 nM.

Consider `CC1(C)CC(=C(c2ccc3[nH]nc(F)c3c2)c2c(F)cc(N3CCN(C4CN(c5ccc6c(c5)C(=O)N(C5CCC(=O)NC5=O)C6=O)C4)CC3)cc2F)CC(C)(C)O1` (centres unmarked) [Compound 3], for which the DC50 is more than 100 nM. `CC1(C)CC(=C(c2ccc(N3CCN(CC4CCN(c5ccc6c(c5)C(=O)N(C5CCC(=O)NC5=O)C6=O)CC4)CC3)nc2)c2ccc3[nH]nc(F)c3c2)CC(C)(C)O1` (centres unmarked) [Compound 4] had a 50% degradation concentration (DC50) of more than 100 nM. As to `CC1(C)CC(=C(c2ccc(OC3CN(CC4CCN(c5ccc6c(c5)C(=O)N(C5CCC(=O)NC5=O)C6=O)CC4)C3)nc2)c2ccc3[nH]nc(F)c3c2)CC(C)(C)O1` (centres unmarked) [Compound 7], the DC50 lay in the range of 10 to 100 nM.

In turn, `CC1(C)CC(=C(c2ccc(OC3CN(CC4CCN(c5ccc6c(c5)C(=O)N(C5CCC(=O)NC5=O)C6=O)CC4)C3)cc2)c2ccc3[nH]nc(F)c3c2)CC(C)(C)O1` (centres unmarked) [Compound 8] gave a half-maximal degradation concentration (DC50) of more than 100 nM. In turn, `CC1(C)CC(=C(c2ccc3[nH]nc(F)c3c2)c2c(F)cc(N3CCN(CC4CN(c5ccc6c(c5)C(=O)N(C5CCC(=O)NC5=O)C6=O)C4)CC3)cc2F)CC(C)(C)O1` (centres unmarked) [Compound 9] came in with a DC50 of more than 100 nM. Compound `CC1(C)CC(=C(c2ccc3[nH]nc(F)c3c2)c2c(F)cc(N3CCN(C4CCN(c5ccc6c(c5)C(=O)N(C5CCC(=O)NC5=O)C6=O)CC4)CC3)cc2F)CC(C)(C)O1` (centres unmarked) [Compound 10] gave a DC50 of more than 100 nM. In turn, `CC1(C)CC(=C(c2ccc3[nH]nc(F)c3c2)c2c(F)cc(N3CCC(N4CCN(c5ccc6c(c5)C(=O)N(C5CCC(=O)NC5=O)C6=O)CC4)CC3)cc2F)CC(C)(C)O1` (centres unmarked) [Compound 11] registered a half-maximal degradation concentration (DC50) of less than 10 nM. Consider `CC1(C)CC(=C(c2ccc3[nH]nc(F)c3c2)c2c(F)cc(N3CCC(CN4CCN(c5ccc6c(c5)C(=O)N(C5CCC(=O)NC5=O)C6=O)CC4)CC3)cc2F)CC(C)(C)O1` (centres unmarked) [Compound 12], for which the DC50 fell in the range of 10 to 100 nM.

In the case of `CC1(C)CC(=C(c2ccc(N3CC(N4CCN(c5ccc6c(c5)C(=O)N(C5CCC(=O)NC5=O)C6=O)CC4)C3)cc2)c2ccc3[nH]nc(F)c3c2)CC(C)(C)O1` (centres unmarked) [Compound 13], the half-maximal degradation concentration (DC50) was more than 100 nM. To `CC1(C)CC(=C(c2ccc3[nH]nc(F)c3c2)c2c(F)cc(OC3CN(C4CN(c5ccc6c(c5)C(=O)N(C5CCC(=O)NC5=O)C6=O)C4)C3)cc2F)CC(C)(C)O1` (centres unmarked) [Compound 14] belongs more than 100 nM; to `CC1(C)CC(=C(c2ccc3[nH]nc(F)c3c2)c2c(F)cc(N3CC(CN4CCN(c5ccc6c(c5)C(=O)N(C5CCC(=O)NC5=O)C6=O)CC4)C3)cc2F)CC(C)(C)O1` (centres unmarked) [Compound 15], 10 to 100 nM. With `CC1(C)CC(=C(c2ccc(OCCN3CCN(c4ccc5c(c4)C(=O)N(C4CCC(=O)NC4=O)C5=O)CC3)cc2)c2ccc3[nH]nc(F)c3c2)CC(C)(C)O1` (centres unmarked) [Compound 16], the half-maximal degradation concentration (DC50) was more than 100 nM. Compound `CC1(C)CC(=C(c2ccc(N3CC(CN4CCN(c5ccc6c(c5)C(=O)N(C5CCC(=O)NC5=O)C6=O)CC4)C3)cc2)c2ccc3[nH]nc(F)c3c2)CC(C)(C)O1` (centres unmarked) [Compound 17] came in with a DC50 of more than 100 nM.

In turn, `CC1(C)CC(=C(c2ccc(OC3CN(C4CCN(c5ccc6c(c5)C(=O)N(C5CCC(=O)NC5=O)C6=O)CC4)C3)nc2)c2ccc3[nH]nc(F)c3c2)CC(C)(C)O1` (centres unmarked) [Compound 18] showed a 50% degradation concentration (DC50) of more than 100 nM. Regarding `CC1(C)CC(=C(c2ccc(OC3CN(C4CN(c5ccc6c(c5)C(=O)N(C5CCC(=O)NC5=O)C6=O)C4)C3)nc2)c2ccc3[nH]nc(F)c3c2)CC(C)(C)O1` (centres unmarked) [Compound 19], the DC50 was more than 100 nM. Compound `CC1(C)CC(=C(c2ccc(OC3CN(C4CCN(c5ccc6c(c5)C(=O)N(C5CCC(=O)NC5=O)C6=O)CC4)C3)cc2)c2ccc3[nH]nc(F)c3c2)CC(C)(C)O1` (centres unmarked) [Compound 20] returned a 50% degradation concentration (DC50) of more than 100 nM. In the case of `CC1(C)CC(=C(c2ccc(OC3CN(C4CN(c5ccc6c(c5)C(=O)N(C5CCC(=O)NC5=O)C6=O)C4)C3)cc2)c2ccc3[nH]nc(F)c3c2)CC(C)(C)O1` (centres unmarked) [Compound 21], the DC50 is more than 100 nM.

Compound `CC1(C)CC(=C(c2ccc3[nH]nc(F)c3c2)c2c(F)cc(OCCN3CCN(c4ccc5c(c4)C(=O)N(C4CCC(=O)NC4=O)C5=O)CC3)cc2F)CC(C)(C)O1` (centres unmarked) [Compound 23] had a half-maximal degradation concentration (DC50) of more than 100 nM. The compound `CC1(C)CC(=C(c2ccc3[nH]nc(F)c3c2)c2c(F)cc(OC3CN(CC4CCN(c5ccc6c(c5)C(=O)N(C5CCC(=O)NC5=O)C6=O)CC4)C3)cc2F)CC(C)(C)O1` (centres unmarked) [Compound 24] gave a DC50 of 10 to 100 nM.

`CC1(C)CC(=C(c2ccc3[nH]nc(F)c3c2)c2c(F)cc(OC3CN(C4CCN(c5ccc6c(c5)C(=O)N(C5CCC(=O)NC5=O)C6=O)CC4)C3)cc2F)CC(C)(C)O1` (centres unmarked) [Compound 25] returned a half-maximal degradation concentration (DC50) of more than 100 nM. With `CC1(C)CC(=C(c2ccc3[nH]nc(F)c3c2)c2c(F)cc(OC3CN(CC4CN(c5ccc6c(c5)C(=O)N(C5CCC(=O)NC5=O)C6=O)C4)C3)cc2F)CC(C)(C)O1` (centres unmarked) [Compound 26], the half-maximal degradation concentration (DC50) is less than 10 nM. `CC1(C)CC(=C(c2ccc(N3CC(CN4CCN(c5ccc6c(c5)C(=O)N(C5CCC(=O)NC5=O)C6=O)CC4)C3)nc2)c2ccc3[nH]nc(F)c3c2)CC(C)(C)O1` (centres unmarked) [Compound 27] returned a DC50 of 10 to 100 nM. On to `CC1(C)CC(=C(c2ccc(OCCN3CCN(c4ccc5c(c4)C(=O)N(C4CCC(=O)NC4=O)C5=O)CC3)nc2)c2ccc3[nH]nc(F)c3c2)CC(C)(C)O1` (centres unmarked) [Compound 28], for which the DC50 is more than 100 nM. Compound `CC1(C)CC(=C(c2ccc3[nH]nc(F)c3c2)c2c(F)cc(N3CC(N4CCN(c5ccc6c(c5)C(=O)N(C5CCC(=O)NC5=O)C6=O)CC4)C3)cc2F)CC(C)(C)O1` (centres unmarked) [Compound 29] registered a DC50 of more than 100 nM. To `CC1(C)CC(=C(c2ccc(OC3CN(CC4CN(c5ccc6c(c5)C(=O)N(C5CCC(=O)NC5=O)C6=O)C4)C3)nc2)c2ccc3[nH]nc(F)c3c2)CC(C)(C)O1` (centres unmarked) [Compound 30] belongs more than 100 nM; to `CC1(C)CC(=C(c2ccc(OC3CN(CC4CN(c5ccc6c(c5)C(=O)N(C5CCC(=O)NC5=O)C6=O)C4)C3)cc2)c2ccc3[nH]nc(F)c3c2)CC(C)(C)O1` (centres unmarked) [Compound 32], more than 100 nM. In the case of `CC1(C)CC(=C(c2ccc(N3CCC(CN4CCN(c5ccc6c(c5)CN(C5CCC(=O)NC5=O)C6=O)CC4)CC3)nc2)c2ccc3[nH]ncc3c2)CC(C)(C)O1` (centres unmarked) [Compound 39], the DC50 was less than 10 nM.

In the case of `CC1(C)CC(=C(c2ccc(N3CC(CN4CCN(c5ccc6c(c5)CN(C5CCC(=O)NC5=O)C6=O)CC4)C3)nc2)c2ccc3[nH]nc(F)c3c2)CC(C)(C)O1` (centres unmarked) [Compound 40], the 50% degradation concentration (DC50) was more than 100 nM. Compound `CC1(C)CC(=C(c2ccc(N3CCC(CN4CCN(c5ccc6c(c5)CN(C5CCC(=O)NC5=O)C6=O)CC4)CC3)cc2)c2ccc3[nH]nc(F)c3c2)CC(C)(C)O1` (centres unmarked) [Compound 41] gave a DC50 of 10 to 100 nM. To `CC1(C)CC(=C(c2ccc(N3CCC4(CC3)CC(N3CC5(CN(c6ccc7c(c6)CN(C6CCC(=O)NC6=O)C7=O)C5)C3)C4)nc2)c2ccc3[nH]nc(F)c3c2)CC(C)(C)O1` (centres unmarked) [Compound 43] belongs more than 100 nM.

On to `CN(CC1CCN(c2ccc(C(=C3CC(C)(C)OC(C)(C)C3)c3ccc4[nH]nc(F)c4c3)cn2)CC1)C1CCN(c2ccc3c(c2)CN(C2CCC(=O)NC2=O)C3=O)CC1` (centres unmarked) [Compound 45], for which the half-maximal degradation concentration (DC50) lay within 10 to 100 nM.
